pIC50: −log10 of the molar value. “Also recorded” adds a separate entry of the source.
Tests used:
[1] = target: T1, MAGE-A11:PCF11 interaction (GST-MAGE-A11 MHD and FAM-PCF11_4) (Homo sapiens, UniProt P43364); assay: TR-FRET dose response test of compounds for disruption of MAGE-A11:PCF11 binding; details: Fig. 5c, 5f, Supplementary Fig. 4e legend; read-out: IC50, TR-FRET competition, disruption of MAGE-A11:PCF11 binding
T1 construct: GST-MAGE-A11 MHD (human MAGE-A11 MHD amino acid 218-429); made in house; host or cells: E. coli BL21(DE3)
T1 sequence (P43364 218-429): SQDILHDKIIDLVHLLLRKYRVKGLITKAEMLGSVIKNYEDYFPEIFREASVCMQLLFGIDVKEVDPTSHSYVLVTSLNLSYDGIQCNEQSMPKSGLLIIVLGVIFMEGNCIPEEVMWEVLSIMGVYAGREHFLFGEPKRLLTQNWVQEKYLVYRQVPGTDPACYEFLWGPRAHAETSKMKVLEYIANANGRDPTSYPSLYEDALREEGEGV
Procedure, shortened: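 Competition of compounds against binding of FAM-PCF11_4 peptide to GST-MAGE-A11 MHD, detected with Tb-anti-GST, in 50 mM Tris pH 7.5, 20 mM MgCl2, 0.1 mg/ml BSA, 1 mM DTT. 90 min at ~25 °C; 520/490 nm emission ratio (340 nm excitation) fitted for IC50.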

His-SUMO-MAGE-A11 MHD = target: T2, His-SUMO-MAGE-A11 MHD (Homo sapiens, UniProt P43364); assay: Nano-differential scanning fluorimetry (NanoDSF); type: binding; details: six-point dose response, protein 10 µM
T2 construct: made in house; host or cells: bacteria
T2 sequence (P43364 218-429): T1 sequence (P43364 218-429)
Experimental: For NanoDSF measurements, a Prometheus NT.48 instrument (NanoTemper Technologies) was used to determine the melting temperatures. Triplicate samples were prepared in a standard 384-well PCR plate with His-SUMO-MAGE-A11 at 10 µM and ligand concentrations as noted. After incubating the protein and ligands for at least 30 min, capillaries were filled with 10 μL of sample and placed on the sample holder. DMSO was used as a negative reference control while PCF11_6 peptide was used as a positive control validating the assay. A temperature gradient of 1 °C min^−1 from 25 to 95 °C was applied and the intrinsic protein fluorescence at 330 and 350 nm was recorded. The 350 nm to 330 nm ratios of fluorescence measurements were used to calculate the Tm values of each sample using the Nanotemper PR.ThermControl software. Data were further analyzed and plotted using GraphPad Prism (v 8.3.1).

| Compound | pIC50 [1] | thermal stabilization of MAGE-A11 (NanoDSF) (His-SUMO-MAGE-A11 MHD; listed as SJ521054) | thermal stabilization of MAGE-A11 (NanoDSF) (His-SUMO-MAGE-A11 MHD; listed as SJ1008066) |
| --- | --- | --- | --- |
| FC(F)(F)c1ccc2c(NCCCNCc3ccc4[nH]ccc4c3)ccnc2c1 [SJ000521054-02] | 6.40 | showed stabilization of MAGE-A11; also recorded: stabilized MAGE-A11 | – |
| c1ccc2c(NCCCNCc3ccc4[nH]ccc4c3)ccnc2c1 [SJ001008066-01] | 6.89 | – | showed stabilization of MAGE-A11; also recorded: stabilized MAGE-A11 |

From paper PMC7529893, “Structural basis for substrate recognition and chemical inhibition of oncogenic MAGE ubiquitin ligases” (Nature Communications, 2020)
